Calls of active or inactive are those of the source. No cut-off for these calls is given here.
How the values were obtained:
[1] = Cytotoxicity against human Hs 578T cells at 10 uM; assay type: functional; details: read-out: GI
MDA-MB-468 = test: Cytotoxicity against human MDA-MB-468 cells at 10 uM; assay type: functional; details: read-out: GI
MCF7 = test: Cytotoxicity against human MCF7 cells at 10 uM; assay type: functional; details: read-out: GI
T47D = test: Cytotoxicity against human T47D cells at 10 uM; assay type: functional; details: read-out: GI
DU-145 = test: Cytotoxicity against human DU145 cells at 10 uM; assay type: functional; details: for inhibition of growth at 10 µM: read-out: GI
PC-3 = test: Cytotoxicity against human PC3 cells at 10 uM; assay type: functional; details: read-out: GI
A498 = test: Cytotoxicity against human A498 cells at 10 uM; assay type: functional; details: read-out: GI
NCI/ADR-RES = test: Cytotoxicity against human NCI-ADR-RES cells at 10 uM; assay type: functional
LOX IMVI = test: Cytotoxicity against human LOXIMVI cells at 10 uM; assay type: functional; details: read-out: GI
OVCAR-3 = test: Cytotoxicity against human OVCAR3 cells at 10 uM; assay type: functional; details: for inhibition of growth at 10 µM: read-out: GI
UACC-62 = test: Cytotoxicity against human UACC62 cells at 10 uM; assay type: functional; details: read-out: GI
SK-MEL-2 = test: Cytotoxicity against human SK-MEL-2 cells at 10 uM; assay type: functional; details: read-out: GI
SF-268 = test: Cytotoxicity against human SF268 cells at 10 uM; assay type: functional; details: read-out: GI
SW-620 = test: Cytotoxicity against human SW620 cells at 10 uM; assay type: functional; details: for inhibition of growth at 10 µM: read-out: GI
SNB-75 = test: Cytotoxicity against human SNB75 cells at 10 uM; assay type: functional; details: read-out: GI
KM12 = test: Cytotoxicity against human KM12 cells at 10 uM; assay type: functional; details: read-out: GI
HT-29 = test: Cytotoxicity against human HT-29 cells at 10 uM; assay type: functional; details: read-out: GI
HOP-92 = test: Cytotoxicity against human HOP92 cells at 10 uM; assay type: functional; details: read-out: GI
NCI-H460 = test: Cytotoxicity against human NCI-H460 cells at 10 uM; assay type: functional; details: read-out: GI
A549 = test: Cytotoxicity against human A549 cells at 10 uM; assay type: functional; details: read-out: GI
SR = test: Cytotoxicity against human SR cells at 10 uM; assay type: functional; details: read-out: GI
MOLT-4 = test: Cytotoxicity against human MOLT4 cells at 10 uM; assay type: functional; details: read-out: GI
RPMI-8226 = test: Cytotoxicity against human RPMI8226 cells at 10 uM; assay type: functional; details: read-out: GI
K562 = test: Cytotoxicity against human K562 cells at 10 uM; assay type: functional; details: read-out: GI
HL-60(TB) = test: Cytotoxicity against human HL-60(TB) cells at 10 uM; assay type: functional; details: read-out: GI
Carbonic anhydrase 9 = Carbonic anhydrase 9 (Homo sapiens, UniProt Q16790)

Cc1cc(S(=O)(=O)NC(=N)Nc2cccc(S(N)(=O)=O)c2)c(SCc2ccccc2)cc1Cl
inhibition of growth at 10 µM [1]: 17% | inhibition of growth at 10 µM (MDA-MB-468): 32% | inhibition of growth at 10 µM (MCF7): 21% | inhibition of growth at 10 µM (T47D): 13% | growth inhibition (GI) (DU-145): inactive | inhibition of growth at 10 µM (PC-3): 45% | inhibition of growth at 10 µM (A498): 16% | growth inhibition (GI) (NCI/ADR-RES): inactive | inhibition of growth at 10 µM (LOX IMVI): 15% | growth inhibition (GI) (OVCAR-3): inactive | inhibition of growth at 10 µM (UACC-62): 30% | inhibition of growth at 10 µM (SK-MEL-2): 14% | inhibition of growth at 10 µM (SF-268): 12% | growth inhibition (GI) (SW-620): inactive | inhibition of growth at 10 µM (SNB-75): 35% | inhibition of growth at 10 µM (KM12): 5% | inhibition of growth at 10 µM (HT-29): 8% | inhibition of growth at 10 µM (HOP-92): 46% | inhibition of growth at 10 µM (NCI-H460): 3% | inhibition of growth at 10 µM (A549): 16% | inhibition of growth at 10 µM (SR): 15% | inhibition of growth at 10 µM (MOLT-4): 34% | inhibition of growth at 10 µM (RPMI-8226): 23% | inhibition of growth at 10 µM (K562): 22% | inhibition of growth at 10 µM (HL-60(TB)): 16%

Cc1cc(S(=O)(=O)NC(=N)Nc2cccc(S(N)(=O)=O)c2)c(SCc2ccc(C(F)(F)F)cc2)cc1Cl
inhibition of growth at 10 µM [1]: 13% | inhibition of growth at 10 µM (MDA-MB-468): 26% | inhibition of growth at 10 µM (MCF7): 51% | inhibition of growth at 10 µM (T47D): 35% | inhibition of growth at 10 µM (DU-145): 6% | inhibition of growth at 10 µM (PC-3): 68% | inhibition of growth at 10 µM (A498): 13% | growth inhibition (GI) (NCI/ADR-RES): inactive | inhibition of growth at 10 µM (LOX IMVI): 20% | inhibition of growth at 10 µM (OVCAR-3): 33% | inhibition of growth at 10 µM (UACC-62): 35% | inhibition of growth at 10 µM (SK-MEL-2): 27% | inhibition of growth at 10 µM (SF-268): 19% | inhibition of growth at 10 µM (SW-620): 5% | inhibition of growth at 10 µM (SNB-75): 53% | inhibition of growth at 10 µM (KM12): 34% | inhibition of growth at 10 µM (HT-29): 20% | inhibition of growth at 10 µM (HOP-92): 37% | inhibition of growth at 10 µM (NCI-H460): 19% | inhibition of growth at 10 µM (A549): 36% | inhibition of growth at 10 µM (SR): 54% | inhibition of growth at 10 µM (MOLT-4): 51% | inhibition of growth at 10 µM (RPMI-8226): 39% | inhibition of growth at 10 µM (K562): 48% | inhibition of growth at 10 µM (HL-60(TB)): 33%

Cc1cc(S(=O)(=O)NC(=N)NCc2ccc(S(N)(=O)=O)cc2)c(SCc2cc3c(cc2Cl)OCO3)cc1Cl
inhibition of growth at 10 µM [1]: 29% | inhibition of growth at 10 µM (MDA-MB-468): 62% | inhibition of growth at 10 µM (MCF7): 60% | inhibition of growth at 10 µM (T47D): 48% | inhibition of growth at 10 µM (DU-145): 2% | inhibition of growth at 10 µM (PC-3): 54% | inhibition of growth at 10 µM (A498): 10% | growth inhibition (GI) (NCI/ADR-RES): inactive | inhibition of growth at 10 µM (LOX IMVI): 28% | inhibition of growth at 10 µM (OVCAR-3): 41% | inhibition of growth at 10 µM (UACC-62): 56% | inhibition of growth at 10 µM (SK-MEL-2): 38% | inhibition of growth at 10 µM (SF-268): 28% | inhibition of growth at 10 µM (SW-620): 8% | inhibition of growth at 10 µM (SNB-75): 42% | inhibition of growth at 10 µM (KM12): 38% | inhibition of growth at 10 µM (HT-29): 15% | inhibition of growth at 10 µM (HOP-92): 57% | inhibition of growth at 10 µM (NCI-H460): 20% | inhibition of growth at 10 µM (A549): 30% | inhibition of growth at 10 µM (SR): 50% | inhibition of growth at 10 µM (MOLT-4): 50% | inhibition of growth at 10 µM (RPMI-8226): 57% | inhibition of growth at 10 µM (K562): 57% | inhibition of growth at 10 µM (HL-60(TB)): 58%

Cc1cc(S(=O)(=O)NC(=N)NCc2ccc(S(N)(=O)=O)cc2)c(SCc2cc(=O)[nH]c3ccccc23)cc1Cl
Ki (Carbonic anhydrase 9): 0.31 µM
